Laboratory results published in ChEMBL document CHEMBL3045257, “Pyrenocines J-M: four new pyrenocines from the endophytic fungus, Phomopsis sp” (2012).

What was measured:
Priestia megaterium = experiment: Antimicrobial activity against Bacillus megaterium by agar diffusion test; assay type: functional
Microbotryum violaceum = experiment: Antifungal activity against Microbotryum violaceum by agar diffusion test; assay type: functional
Escherichia coli = experiment: Antimicrobial activity against Escherichia coli by agar diffusion test; assay type: functional
[Chlorella] fusca = Antialgal activity against 'Chlorella' fusca by agar diffusion test; assay type: functional, Scenedesmus fuscus
Botrytis cinerea = experiment: Antifungal activity against Botryotinia fuckeliana by agar diffusion test; assay type: functional
Zymoseptoria tritici = experiment: Antifungal activity against Zymoseptoria tritici by agar diffusion test; assay type: functional
Phytophthora infestans = experiment: Antifungal activity against Phytophthora infestans by agar diffusion test; assay type: functional
Pyricularia oryzae = experiment: Antifungal activity against Magnaporthe oryzae by agar diffusion test; assay type: functional

Molecule	inhibition zone (IZ) (Priestia megaterium) [mm]	inhibition zone (IZ) (Microbotryum violaceum) [mm]	inhibition zone (IZ) (Escherichia coli) [mm]	inhibition zone (IZ) ([Chlorella] fusca) [mm]	inhibition zone (IZ) (Botrytis cinerea) [mm]	inhibition zone (IZ) (Zymoseptoria tritici) [mm]	inhibition zone (IZ) (Phytophthora infestans) [mm]	inhibition zone (IZ) (Pyricularia oryzae) [mm]	inhibition zone (IZ) ([Chlorella] fusca; Scenedesmus fuscus) [mm]
C[C@@H]1C[C@@H]([C@H](O)CC2CC(=O)NC(=O)C2)C(=O)[C@@H](C)C1 [CYCLOHEXIMIDE]	0	50	0	35					
CC1(C)S[C@@H]2[C@H](NC(=O)Cc3ccccc3)C(=O)N2[C@H]1C(=O)O [PENICILLIN G]	18	0	14	0					
COc1cc(=O)oc2c1CO[C@@H](CC(C)=O)C2 [PYRENOCINE K]	8	5	6	6	0	6	0	0	
CCC[C@@H](Cc1oc(=O)cc(OC)c1CO)OC(C)=O [PYRENOCINE L]	9	0	10	10	0	0	0	0	
CCCCCc1oc(=O)cc(OC)c1CO [PYRENOCINE M]	9	5	5	5	0	6	0	0	
CN(C)[C@@H]1C(O)=C(C(N)=O)C(=O)[C@@]2(O)C(O)=C3C(=O)c4c(O)cccc4[C@@](C)(O)[C@H]3C[C@@H]12 [TETRACYCLINE]	18	0	18	10					
NYSTATIN	0	20	0						0
